Where a name gives a salt, the structure may show the parent alone.

The subject of test [1] is LPS-induced lung inflammation. The test is described as follows: Endotoxic shock (LPS) model, bronchoalveolar lavage. In kind it is in vivo, Sprague-Dawley rats. The note with it: BAL 24 hours after LPS. How it is done: (§1) Treatment Protocol. Endotoxin (lipopolysaccharide/LPS; Sigma; E. coli serotype 0128:B7; 3 mg/kg, i.v.) was administered to male Sprague-Dawley, resulting in an acute non-lethal inflammation. In rats, a sublethal dose of LPS results in a moderate lung inflammation characterized by neutrophil accumulation and protein accumulation in the airspace, both markers of lung inflammation. The pro-inflammatory cytokine TNF-alpha increases very rapidly in the serum, peaking by 60-90 minutes. This is followed by increases in IL-10, a prototypical anti-inflammatory cytokine that peaks 8-12 hr later.
(§2) Administration of Biliverdin. Biliverdin (Frontier Scientific: prepared in PBS following solubilization in NaOH) was administered i.p. at […] 17 hours prior to, one hour prior to, and eight hours after LPS administration.
(§3) Bronchoalveolar Lavage. A bronchoalveolar lavage (BAL) was performed 24 hours after LPS administration. Serum cytokines were measured using commercially available ELISA kits (R&D Systems Inc.) per the manufacturer's instructions. Total protein was determined via a standard Bradford assay based on a standard curve. […] Total cell count was determined as well as differential analysis of cell type and morphology via Diff-Quik® Fixative (American Scientific Products) staining of a sample of the lavagate.

Test [2] has as its system TNF-alpha. The experiment in a line: Endotoxic shock (LPS) model, serum TNF-alpha. In kind it is in vivo, Sprague-Dawley rats. To be noted: biliverdin i.p. […] 17 h and 1 h prior to and 8 h after LPS 3 mg/kg i.v. As to the method: as §1, §2, §3
Test [3] relates to NF-κB. The experiment in a line: EMSA of nuclear extracts, NF-κB DNA binding. To be noted: Jurkat T cells, PMA plus ionomycin, 100 μM biliverdin. In kind it is cell-based. How it is done:
Nuclear protein extraction and electrophoretic mobility shift assay (EMSA). Jurkat T cells were cultured in 10% FCS supplemented RPMI 1640 with 50 nM phorbol myristyl acetate (PMA) and 2 μM ionomycin (both reagents from ICN Biomedicals) in the presence or absence of 100 μM biliverdin. Following 0, 2, and 4 hrs of stimulation, cells (30×10^6 cells for each group at each time points) were collected, washed twice with PBS, and pelleted. Nuclear and cytoplasmic extracts were prepared according to a modified Shapiro's method (Shapiro et al., DNA 7(1):47-55, 1988). Protein concentrations were determined by the Bradford assay. The following oligonucleotides (Invitrogen, Calsbad, Calif.) were used for EMSA:
NF-κB, (coding) 5′-[…]-3′ (SEQ ID NO:7),
(non-coding) 5′-[…]-[…]-3′ (SEQ ID NO:8).
Oligonucleotides were radioactively labeled with [^32P] ATP. The EMSA reactions were assembled as previously described (Usheva et al., Proc. Natl. Acad. Sci. USA 93(24):13571-6, 1996). Digital images from the EMSA radiographs were obtained using an image scanner.
Background: A gel shift assay detects complexes by their altered migration in electrophoresis.

Test [4] deals with HO-1. The experiment in a line: HO activity assay on spleen and heart of treated mice. The note with it: 5 mg/kg i.p., one day after treatment. In kind it is in vivo, DBA/2J mice. As to the method: HO activity assay. DBA/2J mice were given either no treatment or CoPPIX or ZnPPIX at a dose of 5 mg/kg, i.p. (n=10 per group). One day after the treatment, the animals were sacrificed, the spleen and the heart were excised, and tissue samples were frozen at −80° C. Frozen tissue samples were homogenized in ice-cold sucrose and Tris-HCl buffer. The microsomal pellet was obtained after centrifugation and re-suspended in MgCl2-potassium phosphate buffer. Sample protein was then incubated with the reaction mixture containing rat liver cytosol, hemin, glucose-6-phosphate, glucose-6-phosphate dehydrogenase and NADPH (Sigma-Aldrich Corporation, St. Louis, Mo.) for 60 minutes at 37° C. The generated bilirubin was measured by reacting with diazotized surfanilic acid to yield azobilirubin using spectrophotometer.

As to `C=CC1=C(C)/C(=C/C2=NC(=C\c3[nH]c(/C=C4\NC(=O)C(C)=C4C=C)c(C)c3CCC(=O)O)/C(CCC(=O)O)=C2C)NC1=O` [biliverdin, biliverdin dihydrochloride], in test [1], the “neutrophil accumulation in the airspace” value is “reduced” and the “protein accumulation in the airspace” value was “reduced”. Besides, the “levels of LPS-induced TNF-alpha” value in test [2] was “reduced”. For the same molecule, the “DNA binding of NF-κB” value in test [3] is reported as “inhibited DNA binding”.
Turning to `C=CC1=C(C)c2cc3[n-]c(cc4nc(cc5[n-]c(cc1n2)c(C)c5CCC(=O)[O-])C(CCC(=O)[O-])=C4C)c(C)c3C=C.[Co+2].[H+].[H+]` [CoPP, Cobalt protoporphyrin], the HO-1 enzymatic activity entry in test [4] is on record as “significantly enhanced”.
